Consider one compound from patent US10201530B2, “Treatment of BRCA1-defective cancer or resistant cancers” (City of Hope, priority 2014, dated 2019).

The test system of one test is SKBR3. Put plainly: Cytotoxicity, SKBR3 cells. The format is cell-based, human. Particulars: Homo sapiens, SK-BR-3; SKBR3, ER− PR(−) HER2+. As to the method:
(§1) All cell lines were acquired from the American Type Culture Collection (Manassas, Va., USA). Cells were maintained in RPMI 1640 medium (Mediatech) with 10% fetal bovine serum, 2 mM glutamine, and 100 U of penicillin and 100 μg of streptomycin per ml of medium (Sigma) at 37° C. in 5% CO2. To isolate HCC1437+BRCA1 cells, parental HCC1937 cells were transfected with pcDNA3.1 plasmid expressing full-length BRCA1 cDNA. Stable transfectant clones were selected and used for drug sensitivity assays. For stable transfection, cells at 30-40% confluence were incubated overnight with […] of plasmid DNA, using FUGENE® 6 transfectin reagent (Roche Molecular Biochemical, Monza, Italy) according to the manufacturer's instructions. Cells were then selected in puromycin (1 μg/ml) (Invitrogen life Technologies, La Jolla, Calif., USA.) After 20 to 30 days, viable puromycin-resistant colonies from HCC1937 transfections were expanded and screened. The clones that stably expressed […] and retained growth potential were assayed for BRCA1 expression by Western blot analysis. By Western blot analysis, we evaluated the restoration of BRCA1 expression in the puromycin-resistant cDNA/transfectant cells.
(§2) The MTT cytotoxicity assay was performed by incubating with MTT and monitoring the MTT formazan formed by viable cells with a microplate reader at a wavelength of 560 nm; the survival, ratio was determined using the formula: (Atest−Ablank)/(Acontrol−Ablank)×100%. The cytotoxicity was determined in 96-well plates using the semiautomatic fluorescence-based Digital Imaging Microscopy System (DIMSCAN). DIMSCAN uses digital imaging microscopy to quantify viable cells, which selectively accumulate FDA (fluorescein diacetate; Alfa Aesar, Ward Hill, Mass.). DIMSCAN is capable of measuring cytotoxicity over a 4 log dynamic range by quantifying total fluorescence per well (which is proportional to the number of viable cells) after elimination of the background fluorescence by digital thresholding and eosin Y (Mallinckrodt Baker, Center Valley, Pa.) quenching. […]

The next test relates to UWB1.289. Put plainly: Cytotoxicity, UWB1.289 cells. The format is cell-based, human. To be noted: Homo sapiens, UWB1289; UWB1.289, BRCA1-defective ovarian cancer cells; COH29 72 h; read-out: IC50, mean ± SEM. On the procedure: as §1
(§3) The MTT cytotoxicity assay was performed by incubating with MTT and monitoring the MTT formazan formed by viable cells with a microplate reader at a wavelength of 560 nm; the survival, ratio was determined using the formula: (Atest−Ablank)/(Acontrol−Ablank)×100%. The cytotoxicity was determined in 96-well plates using the semiautomatic fluorescence-based Digital Imaging Microscopy System (DIMSCAN). DIMSCAN uses digital imaging microscopy to quantify viable cells, which selectively accumulate FDA (fluorescein diacetate; Alfa Aesar, Ward Hill, Mass.). DIMSCAN is capable of measuring cytotoxicity over a 4 log dynamic range by quantifying total fluorescence per well (which is proportional to the number of viable cells) after elimination of the background fluorescence by digital thresholding and eosin Y (Mallinckrodt Baker, Center Valley, Pa.) quenching. Cells were seeded into 96-well plates in 100 μL of complete medium at 2,000 to 5,000 cells per well depending on cell line growth rate. After overnight incubation, test compound was added to each well at various concentrations in 50 μL of culture medium. […] Total fluorescence per well was then measured using DIMSCAN, and the results were expressed as the ratio of the fluorescence in treated wells to the fluorescence in untreated wells (survival fraction).

The subject of a further test is OVCAR-3. Briefly: Cytotoxicity, OVCAR-3 cells. The format is cell-based, human. Particulars: Homo sapiens, read-out: IC50, mean ± SEM. On the procedure: as §1
(§4) The MTT cytotoxicity assay was performed by incubating with MTT and monitoring the MTT formazan formed by viable cells with a microplate reader at a wavelength of 560 nm; the survival, ratio was determined using the formula: (Atest−Ablank)/(Acontrol−Ablank)×100%. The cytotoxicity was determined in 96-well plates using the semiautomatic fluorescence-based Digital Imaging Microscopy System (DIMSCAN). DIMSCAN uses digital imaging microscopy to quantify viable cells, which selectively accumulate FDA (fluorescein diacetate; Alfa Aesar, Ward Hill, Mass.). DIMSCAN is capable of measuring cytotoxicity over a 4 log dynamic range by quantifying total fluorescence per well (which is proportional to the number of viable cells) after elimination of the background fluorescence by digital thresholding and eosin Y (Mallinckrodt Baker, Center Valley, Pa.) quenching. Cells were seeded into 96-well plates in 100 μL of complete medium at 2,000 to 5,000 cells per well depending on cell line growth rate. After overnight incubation, test compound was added to each well at various concentrations in 50 μL of culture medium. After incubation with the drugs for 96 hours at 37° C., FDA (final concentration: […]) and eosin Y [final concentration: 0.1% (w/v)] were added to each well and the cells were incubated for an additional 20 minutes at 37° C. Total fluorescence per well was then measured using DIMSCAN, and the results were expressed as the ratio of the fluorescence in treated wells to the fluorescence in untreated wells (survival fraction).

In another test the test system is OV90. Put plainly: Cytotoxicity (MTT/DIMSCAN), OV90 cells. The format is cell-based, human. To be noted: Homo sapiens, OV-90; OV90, wild-type BRCA1 ovarian cancer cells; COH29 72 h; read-out: IC50, mean ± SEM. As to the method:
as §1, §3

The test system of the next test is UWB1.289 + BRCA1. Briefly: Cytotoxicity, UWB1.289+BRCA1 cells. The class given is cell-based, human. To be noted: Homo sapiens, UWB1289; UWB1.289 + BRCA1 (WT); COH29 72 h; read-out: IC50, mean ± SEM. On the procedure: as §1, §3
The target of a further test is RR (Homo sapiens, UniProt P31350). To be noted: previously reported, ref (6); cited from earlier work.
Chain of RR (P31350 whole entry): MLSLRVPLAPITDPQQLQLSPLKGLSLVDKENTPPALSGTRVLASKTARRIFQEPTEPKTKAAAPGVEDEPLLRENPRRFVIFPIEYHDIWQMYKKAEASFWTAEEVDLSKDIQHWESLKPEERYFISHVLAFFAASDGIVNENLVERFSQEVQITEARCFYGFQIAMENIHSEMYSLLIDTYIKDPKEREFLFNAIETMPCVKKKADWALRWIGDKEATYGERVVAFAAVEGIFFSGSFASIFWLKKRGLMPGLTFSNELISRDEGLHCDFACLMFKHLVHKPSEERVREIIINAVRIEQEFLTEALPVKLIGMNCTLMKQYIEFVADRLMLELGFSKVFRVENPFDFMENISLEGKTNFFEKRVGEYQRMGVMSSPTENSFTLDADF
The next test relates to HCC1937 + BRCA1. Briefly: Cytotoxicity, HCC1937+BRCA1 cells. The format is cell-based, human. To be noted: Homo sapiens; HCC1937 + BRCA1, triple negative; COH29 72 h. On the procedure:
as §1, §2

The next test concerns HCC1937. Briefly: Cytotoxicity, HCC1937 cells. To be noted: Homo sapiens; HCC1937, triple negative, BRCA1 mutant; COH29 72 h. The class given is cell-based, human. On the procedure: as §1, §2
The test system of another test is HCC1937+BRCA1 tumors. Put plainly: Orthotopic tumor explant model, HCC1937+BRCA1. The format is in vivo. To be noted: HCC1937+BRCA1 tumors in NSG mice, daily oral 400 mg/kg; p=0.1577. On the procedure:
Experiments in mice were conducted under a protocol approved by the IACUC of City of Hope. Because HCC1937 and HCC1937+BRCA1 cells from slow-growing tumors, they were implanted using MATRIGEL™ (Becton-Dickinson Biosciences). To establish tumors 4×10^6 cells in 200 μL serum-free medium containing 50% MATRIGEL™ were injected into the mammary fat pads around the inguinal area of a pair of 8 week old female NSG mice. Once the initial tenors reached 13 mm in diameter, they were dissected out minced into 3 mm pieces and implanted into the inguinal area of the mammary fat pads of the experimental mice Tumors were measured over a 28-day period, and for each time point, the student t-test was used to determine the statistical significance between daily gavage with 400 mg/kg COH29 in 30% solutol and corresponding vehicle control. The p value less than 0.05 (2 sides) was considered to indicate statistical significance

The test system of the next test is OVCAR-4. Briefly: Cytotoxicity, OVCAR-4 cells. The class given is cell-based, human. Particulars: Homo sapiens, read-out: IC50, mean ± SEM. As to the method: as §1, §4

On to `O=C(Nc1nc(-c2ccc(O)c(O)c2)c(-c2ccccc2)s1)c1ccc(O)c(O)c1` [COH29], for which the IC50 in the test on SKBR3 was determined as 13.28 ± 0.03 µM; in the test with UWB1.289 it was 12.3 ± 1.15 µM; in the test with OVCAR-3, 20.5 ± 0.81 µM; in the test on OV90, 31.6 ± 3.35 µM; with UWB1.289 + BRCA1, 23.5 ± 2.38 µM; in the test with HCC1937 + BRCA1, 35 ± 3.63 µM. Also, the concentration for half-maximal inhibition (IC50) with HCC1937 was 7.25 ± 0.64 µM; with OVCAR-4, 11.2 ± 1.51 µM. For the same compound, the “effect of RR inhibition on dNTP” value at RR is “causes dNTP depletion in vivo”. Besides, the “tumor size compared to vehicle controls” value with HCC1937+BRCA1 tumors is “not significantly smaller”.

One may read the IC50 as the point on the concentration scale where inhibition reaches its midpoint.
